The values below come from patent EP4050002A1, “ANTI-PROLIFERATIVE AGENTS” (First Health Pharmaceuticals B.V., priority 2021, dated 2022).

One data set has as its system MDAMB231 cell line. As to the kind of experiment: Cytotoxicity, cell count method. The data set is classed as cell-based, human. The conditions noted are these: MDAMB231, 72 hours of incubation. As for the experimental part: (§1) The anti-tumor activity of the compounds of the present invention was evaluated as the effect on the proliferation and survival of tumor cells by counting the number of living cells in presence or absence of the compounds ("cell count method"), and as the effect on the viability and metabolic activity of the cells, by using particular substrates that are converted by cellular enzymes into coloured or luminescent products, proportionally with metabolic activity and state of the cell, such as the MTS tetrazolium compound ("MTS method") or luciferin ("ATP-based method") respectively.
(§2) Cells were seeded at 3 to 5 x 10^4 cells/well density depending on cell lines and maintained at 37°C in 5% CO2. After 24 hours cells were treated with ascending concentrations of the investigational compounds and the reference (5-fluoro-Uracyl) in a range from 0 to 100 µM. Compounds were dissolved in DMSO which final concentration in each well was 0.5% v:v. After 72 h of incubation with compounds, the cells were detached with trypsin and re-suspended in 1 ml of complete medium; the cell number was evaluated using a Z2 Coulter Counter ("cell count method") (Attallah and Johnson, A simple highly sensitive methods for the determination of cell viability using an electronic particle analyzer, Coulter counter J. Immunol. Methods. 1981, 41, 155; Leonardi et al., Activated kinase screening identifies the IKBKE oncogene as a positive regulator of autophagy. Autophagy, 2019, 15, 312). Alternatively, after the 72 hours of incubation with compounds, the MTS solution (CellTiter 96® AQueous One Solution Cell Proliferation Assay) is added to each well and absorbance at 490 nm wavelength is read after 2 hours of incubation ("MTS method"). Results in Tables 8-13, 17, 18 were obtained with the cell count method. Results in Tables 14-15 were obtained with the MTS method. Results in Table 16 were obtained with ATP-based method.

A short description of data set [1]: Kinetic solubility (turbidimetry). The conditions noted are these: for solubility at 2 h: 37 °C, kinetic from dmso stock; for Absorbance at 620nm: 2 h. The data set is classed as physicochemical. As for the experimental part: Kinetic solubility was assessed in phosphate buffered saline at pH 7.4 according to the turbidimetry method. Turbidity (precipitation) was measured by absorbance at 620 nm following incubation at 37°C for 2 h. Stock solution of compounds in DMSO were prepared to produce the desired final range of concentrations, then these were added to the buffer to obtain the final test compound concentrations (1 µM, 3 µM, 10 µM, 30 µM, 100 µM), with a final DMSO concentration 1%). Solubility was estimated from the concentration of tested compound that produced a significant increase in absorbance (≥ 0.003 OD at 620 nm) above vehicle control (1% DMSO in water). Miconazole, Reserpine and Propranolol were used as controls.

Another data set deals with A549 Red-FLuc. Nature of the data set: Cytotoxicity, cell count method. The data set is classed as cell-based. The following applies: Homo sapiens, 72 hours of incubation. As for the experimental part:
as §1, §2

In a further data set the target is DDX3X (Homo sapiens, UniProt O00571). Nature of the data set: nanoDSF enzymatic binding (melting temperature shift). Set-up: human DDX3X (residues 132-607, UniProtID: 000571, produced by Proteros GmbH); purchased Proteros GmbH. The following applies: DDX3X with AMPPNP 100 µM, no compound. An excerpt:
The binding of compounds to DDX3X have been assessed by nanoDSF analysis (NanoTemper Technologies GmbH, Flößergasse 4, 81369 München, Germany). NanoDSF technology is a Differential Scanning Fluorimetry method which measures the protein stability with high resolution without the need of a dye. In particular it measures the changes of the intrinsic tryptophan fluorescence at 330 and 350 nm and it is used to determine the melting temperature of a protein. In the folded state the residues of tryptophan are buried in the hydrophobic core. During denaturation the residues are more exposed and the fluorescence changes in both intensity and wavelength. In a typical experiment, the protein is mixed with the ligand in the reaction buffer and transferred into a capillary. The fluorescence is monitored over temperature gradient between 20 and 95°C with an increment of 2.5°C per minute. The interaction of the ligand to the folded state of the protein shifts the protein melting temperature (Tm) at higher or lower temperature.
Experimental conditions: the experiments were conducted with the device Prometheus NT.48 (NanoTemper Technologies GmbH), the enzyme used was the human DDX3X (residues 132-607, UniProtID: 000571, produced by Proteros GmbH). The assessed compounds were dissolved in pure DMSO adequate to obtain a concentration of compound of 100µM and DMSO 1% (v:v) in final solution. Reaction buffer for DDX3X was 20 mM HEPES, pH 7.5, 0.5 mM TCEP, 500 mM NaCl, 10% (v:v) Glycerin, with a final reaction volume of 10 µL and a final DMSO concentration of 1% (v:v). The reaction was performed in "High sensitivity capillaries" in the range of 20-95°C with a heating rate of 2.5°C/min, with an incubation time of 60 minutes.
• 1) Add appropriate volume of target enzyme in reaction buffer • 2) Add compound(s) in 100% DMSO (1% final DMSO conc.) • 3) Fill the capillary • 4) Measure fluorescence
The assay development was performed with DDX3X protein alone showing a Tm at 54.6 °C.
Binding of compound 5 was assessed with the NanoDSF technique, evaluating the association of the aforementioned compound with APO DDX3X and in presence of a competitor for the ATP binding site, Adenylyl imidodiphosphate (AMPPNP) to assess competition of compound 5 for the DDX3X ATP binding site. Table 6. Final protein and compound concentrations in the various assay setup:
All the measures were performed in triplicate and the average (Mean Tm) and standard deviation (SD) were calculated with the following equations: [formula] and SD = sqrt((∑((Tm−Mean Tm))^2)/(n−1)) [formula]
A change of 5xSD from the 1% DMSO control mean is considered to be a significant Tm change. Test of DDX3X with 1% DMSO was performed to obtain the reference melting temperature of the protein alone. Compounds are considered as binders if the Tm shifts by >= 5 times the standard deviation of the control (protein in the absence of compound). Table 7. DDX3X melting temperatures (Tm) at various experimental conditions

SMILES strings stand for the structures. ≈ marks a conversion by molar mass, not a printed value. Counter-ions that a name gives are not always drawn. Like-named read-outs stand apart in the source and are kept apart here.

Sequence of DDX3X (O00571 132-607): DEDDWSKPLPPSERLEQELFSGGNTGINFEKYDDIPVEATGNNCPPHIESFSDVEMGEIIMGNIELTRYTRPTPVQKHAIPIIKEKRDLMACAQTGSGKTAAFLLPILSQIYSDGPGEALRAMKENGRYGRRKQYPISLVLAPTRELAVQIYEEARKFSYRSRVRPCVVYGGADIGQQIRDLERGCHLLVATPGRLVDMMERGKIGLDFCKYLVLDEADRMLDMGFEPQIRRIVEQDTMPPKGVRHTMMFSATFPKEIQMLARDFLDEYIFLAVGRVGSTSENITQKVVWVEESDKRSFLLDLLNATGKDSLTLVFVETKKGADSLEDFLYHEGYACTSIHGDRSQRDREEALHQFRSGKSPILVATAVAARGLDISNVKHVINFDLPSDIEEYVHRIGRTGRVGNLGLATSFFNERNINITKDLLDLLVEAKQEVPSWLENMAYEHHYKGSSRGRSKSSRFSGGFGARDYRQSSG

In turn, `CCCCc1cn(-c2ccc(-c3nnc(-c4cc(C(C)C)ccc4C)o3)cc2)nn1` [Compound 6, 2-(4-(4-butyl-1H-1,2,3-triazol-1-yl)phenyl)-5-(5-isopropyl-2-methylphenyl)-1,3,4-oxadiazole] registered an IC50 in the data set with MDAMB231 cell line (Homo sapiens, MDA-MB-231, 72 h) of 34.6 µM.
`CCCCc1cn(-c2ccc(-c3nnc(-c4ccccc4C)o3)cc2)nn1` [Compound 4, 2-(4-(4-butyl-1H-1,2,3-triazol-1-yl)phenyl)-5-(o-tolyl)-1,3,4-oxadiazole] came in with an IC50 in the data set with MDAMB231 cell line (Homo sapiens, MDA-MB-231, 72 h) of 38.9 µM.
`Clc1ccc(COC(Cn2ccnc2)c2ccc(Cl)cc2Cl)c(Cl)c1` (stereo not drawn) [Miconazole]: the solubility at 2 h in data set [1] (pH 7.4, aqueous buffer) lay in the range of 10 to 30 µM (≈ 4.16 to 12.5 µg/mL). Besides, the “Absorbance at 620nm” value turned out to be 0.037 in data set [1] (1 µM, pH 7.4); 0.037 in data set [1] (3 µM, pH 7.4); 0.037 in data set [1] (10 µM, pH 7.4); 0.044 in data set [1] (30 µM, pH 7.4); 0.053 in data set [1] (100 µM, pH 7.4).
Compound `CCCCc1cn(-c2ccc(-c3nnc(-c4cccc(OC5CCCC5)c4)o3)cc2)nn1` [Compound 22, 2-(4-(4-butyl-1H-1,2,3-triazol-1-yl)phenyl)-5-(3-(cyclopentyloxy)phenyl)-1,3,4-oxadiazole] had a half-maximal inhibitory concentration (IC50) with A549 Red-FLuc of 3.42 µM.
As for `CC(C)NCC(O)COc1cccc2ccccc12` (stereo not drawn) [Propranolol], the solubility at 2 h in data set [1] (aqueous buffer, kinetic solubility, PBS pH 7.4, read-out: solubility) was > 100 µM. Further, the “Absorbance at 620nm” value in data set [1] (conc. 1 µM, PBS pH 7.4, 37°C) came out at 0.038; in data set [1] (conc. 3 µM, PBS pH 7.4, 37°C) it was 0.037; in data set [1] (conc. 10 µM, PBS pH 7.4, 37°C), 0.039; in data set [1] (conc. 30 µM, PBS pH 7.4, 37°C) it was 0.038; in data set [1] (conc. 100 µM, PBS pH 7.4, 37°C) it was 0.037.
Take `CCCCc1cn(-c2ccc(-c3nnc(-c4cccc5cnccc45)o3)cc2)nn1` [Compound 7, 2-(4-(4-butyl-1H-1,2,3-triazol-1-yl)phenyl)-5-(isoquinolin-5-yl)-1,3,4-oxadiazole]: in the data set on MDAMB231 cell line (Homo sapiens, MDA-MB-231, 72 h), the IC50 stood at 216 µM.
In the data set on MDAMB231 cell line (Homo sapiens, MDA-MB-231, 72 h), `CCCCc1cn(-c2ccc(-c3nnc(-c4ccccc4F)o3)cc2)nn1` [Compound 9, 2-(4-(4-butyl-1H-1,2,3-triazol-1-yl)phenyl)-5-(2-fluorophenyl)-1,3,4-oxadiazole] gave an IC50 of 43.1 µM.
The compound `CCCCc1noc(-c2ccc(-c3nnc(-c4cccc(Cl)c4F)o3)cc2)n1` [Compound 1, 3-Butyl-5-(4-(5-(3-chloro-2-fluorophenyl)-1,3,4-oxadiazol-2-yl)phenyl)-1,2,4-oxadiazole] came in with an IC50 in the data set with MDAMB231 cell line (Homo sapiens, MDA-MB-231, 72 h) of 1000 µM.
Still for that read-out and setting: next, `CCCCc1cn(-c2ccc(-c3nnc(-c4ccccc4OC(F)F)o3)cc2)nn1` [Compound 8, 2-(4-(4-butyl-1H-1,2,3-triazol-1-yl)phenyl)-5-(2-(difluoromethoxy)phenyl)-1,3,4-oxadiazole]: 1000 µM.
Consider `Nc1ncnc2c1ncn2[C@@H]1O[C@H](COP(=O)(O)OP(=O)(O)NP(=O)(O)O)[C@@H](O)[C@H]1O` [AMPPNP, Adenylyl imidodiphosphate, reference compound], for which, at DDX3X, the Tm worked out at 54.7 °C and the “effect on Tm upon binding” value is on record as “no significant effect on Tm”.
`COC(=O)[C@H]1[C@H]2C[C@@H]3c4[nH]c5cc(OC)ccc5c4CCN3C[C@H]2C[C@@H](OC(=O)c2cc(OC)c(OC)c(OC)c2)[C@@H]1OC` [Reserpine] had a solubility at 2 h in data set [1] (pH 7.4, aqueous buffer) of 30 to 100 µM (≈ 18.3 to 60.9 µg/mL). Further, the “Absorbance at 620nm” value is recorded as 0.037 in data set [1] (1 µM, pH 7.4); 0.037 in data set [1] (3 µM, pH 7.4); 0.037 in data set [1] (10 µM, pH 7.4); 0.040 in data set [1] (30 µM, pH 7.4); 0.058 in data set [1] (100 µM, pH 7.4).
Compound `CCCCc1cn(-c2ccc(-c3nnc(-c4ccccc4)o3)cc2)nn1` [Compound 2, 2-(4-(4-butyl-1H-1,2,3-triazol-1-yl)phenyl)-5-phenyl-1,3,4-oxadiazole] showed an IC50 in the data set with MDAMB231 cell line (Homo sapiens, MDA-MB-231, 72 h) of 8.11 µM.
`CCCCc1cn(-c2ccc(-c3nnc(-c4ccccc4)o3)cc2)nn1` [Compound 3, 2-(4-(4-butyl-1H-1,2,3-triazol-1-yl)phenyl)-5-phenyl-1,3,4-oxadiazole]: the IC50 in the data set with MDAMB231 cell line is 6.07 µM.
`CCCCc1cn(-c2ccc(-c3nnc(-c4ccc(C5CCNCC5)cc4)o3)cc2)nn1` [Compound 19, 2-(4-(4-butyl-1H-1,2,3-triazol-1-yl)phenyl)-5-(4-(piperidin-4-yl)phenyl)-1,3,4-oxadiazole hydrochloride]: the IC50 in the data set on A549 Red-FLuc stood at 1.7 µM.
